Results on two compounds are retold here after patent US7875270B2, “Treatment solution and method for preventing posterior capsular opacification by selectively inducing detachment and/or death of lens epithelial cells” (Abbott Medical Optics Inc., priority 2002, dated 2011).

Structures are written as SMILES. Some results are limits rather than exact numbers.

Data set [1] has as its system human retinal-pigmented epithelial cells (RPECs). Nature of the data set: Confluent RPEC monolayers exposed to solutions; MTT cell viability. The class given is cell-based. As to the method: (§1) As described below, the confluent monolayers of LECs, CEDCs, and RPECs grown in 96-well flat-bottom plates are exposed to varying concentrations of NaCl (an osmolyte) solution. Two hundred μl of NaCl solution (prepared as described below) are added to each well at concentrations of 137 mM, 170 mM, 340 mM, 680 mM, 1360 mM and 2000 mM NaCl, respectively. The solutions have a pH of 8.0±0.4. The concentrations of NaCl correspond to final osmolarities of about 285 to 4000 mOsm/L, respectively.
(§2) The primary and first passages of human lens epithelial cells, human corneal endothelial cells, and human retinal-pigmented epithelial cells are cultured. The LECs, the CEDCs, and the RPECs are isolated from post-mortem eyes by using standard techniques of cell isolation and enzyme digestion. See Uebersax E D, Grindstaff R D and Defoe D M Exp Eye Res. 2000 March; 70(3): 381-90; Wagner L M, Saleh S M, Boyle D J, and Takemoto D J. Mol Vis. 2002 Mar. 14; 8: 59-66; Cammarata P R, Schafer G, Chen S W, Guo Z, and Reeves R E. Invest Ophthalmol Vis Sci. 2002 February; 43(2): 425-33; Rakic J M, Galand A, and Vrensen G F. Exp Eye Res. 2000 November; 71(5): 489-94. LECs and CEDCs are cultured in Eagle's minimum essential medium (MEM). RPECs are cultured in Ham's F10 medium, supplemented with 2 mM glutamine, 25 mmol/L Hepes, pH 7.4, 10 U/mL penicillin, and 10 μg/mL streptomycin and 15% heat-inactivated foetal cow serum (FCS). The primary cultured LECs, CEDCs, and RPECs are sub-cultured at 10^4 cells/wells in 96-well flat-bottom plates until they reached 90 to 100% confluence. These cells are grown to confluence in an incubator with a humidified atmosphere of 5% CO2 at 37° C. The cells are kept in a confluent state for overnight before assays.
(§3) After treatment, the treated cells are thoroughly washed, and cultured with fresh media for twelve hours before cell viability is assessed. The capability of these cells to survive at the indicated hypertonic stress levels is assessed by an MTT assay 12-24 hours post-exposure.
(§4) MTT assay is an assay to assess mitochondria function, performed as described by Mosmann (Mosmann, T. J Immunol Methods. 1983 Dec. 16; 65(1-2): 55-63. The tetrazolium salt 3-(4,5-dimethylthiazol-2-yl)-2,5-diphenyl tetrazolium bromide (MTT; supplied by Sigma Chemical Co.) is dissolved in Phosphate's Balanced Salt (PBS) Solutions at 5 mg/ml and sterilized by passage through a 0.22 μm Millipore filter. MTT stock solution is added to growth media at a ratio of 1 to 10. Cells are incubated with this growth media for three to four hours. In cells that are alive at the time of adding MTT, mitochondrial dehydrogenase cleaves the tetrazolium ring into a dark blue formazan reaction product, which builds up in the cell. MTT-reacted cultures are observed under brightfield microscopy without further processing. Cells in each well are scored as MTT-positive if they are completely filled with reaction product (in the case of unattached cells) or contain many formazan crystals emanating from multiple foci (in the case of attached or spread cells). MTT-reacted cultures are then lysised by dimethyl sulfoxide (DMSO) and read in a Microplate Reader to obtain a measure of cell viability.
Confluent monolayers of RPECs are prepared as described in Example 1. These cells are exposed for ten minutes to 200 μl/well of the solutions comprising increasing concentrations of NaCl (137 mM, 170 mM, 340 mM, 680 mM, 1360 mM and 2000 mM) at varying pH (8.4±0.5 and 10.6±0.5). The solutions of NaCl are prepared as described in Example 1. The pH of the solutions is adjusted with additions of 1 μl and 5 μl of 5N NaOH as described Example 3.
Confluent monolayers of LECs and RPECs are prepared as described in Example 1. […]
Confluent monolayers of LECs, CEDCs and RPECs are prepared as described in Example 1. […]
To assess whether there is any side effect of this treatment on other ocular cells, confluent monolayers of LECs, CEDCs and RPECs are prepared as described in Example 1. […]

In data set [2] the test system is human lens epithelial cells (LECs). Nature of the data set: Confluent LEC monolayers exposed to solutions; MTT cell viability and microscopy. The class given is cell-based.
Data set [3] deals with human corneal endothelial cells (CEDCs). Nature of the data set: Confluent CEDC monolayers exposed to solutions; MTT cell viability. The class given is cell-based. As to the method:
as §1
as §2, with “The primary cultured LECs, CEDCs, and RPECs are sub-cultured at 10^4 cells/wells in 96-well flat-bottom plates until they reached 90 to 100% confluence. These cells are grown to confluence in an incubator with a humidified atmosphere of 5% CO2 at 37° C. The cells are kept in a confluent state for overnight before assays.” left out
as §3
as §4, with “MTT-reacted cultures are observed under brightfield microscopy without further processing.” left out, “viability. […]” for “viability.”

Data set [4] relates to human lens epithelial cells (LECs). Nature of the data set: Confluent LEC monolayers exposed to solutions; MTT cell viability and microscopy. The class given is cell-based. As to the method: as §1, §2, §3, §4
Confluent monolayers of LECs are given three washes with Hank's Balanced Salt Solutions (HBSS) to remove FCS before the experiment. LECs are prepared in 96-well culture plates as in Example 1. These cells are exposed for about five to ten minutes to 200 μl/well of treatment solutions comprising increasing concentrations (˜135 mM, ˜170 mM, ˜340 mM, ˜680 mM, ˜1360 mM and ˜2000 mM) of NaCl (an osmolyte) in the presence and the absence of 30 μM frusemide (a co-transport interference agent, an ion transport mechanism interference agent). The treatment solutions have a pH of 8.0±0.4. After treatment, the treated cells are thoroughly washed, and cultured with fresh media. The viability of the treated LECs was determined by MTT assay 12-24 hours post-treatment as described in Example 1. […]
This is another data set of the same source.

The test system of the next data set is primary cultured LECs. Nature of the data set: LECs on glass cover-slip, inverted phase-contrast microscopy. The class given is cell-based, human. As to conditions: ≦200 mM NaCl, 90 μM frusemide, 3 μl of 5N NaOH. As to the method:
Confluent monolayers of LECs are prepared as described in Example 1 and grown on a glass cover-slip instead of 96-well flat bottom culture plates. The LECs are then thoroughly washed to remove serum.
Ten milliliters (10 mL) of the treatment solution containing ≦200 mM NaCl, 90 μM frusemide and 3 μl of 5N NaOH is prepared in a deep 35 mm petri-dish.
The cover-slips are then transferred to the petri-dish containing the treatment solution and are kept in the treatment solution for five to ten minutes. The treatment solution is then poured away, and the cover-slips along with detached LECs are thoroughly rinsed with a fresh HBSS solution with slight pressure using an aspiration/irrigation probe. After immediate examination and photography using inverted phase contrast microscope, the LECs are kept in culture for seven days with fresh medium to examine whether any residual cells would survive.

The mark [5] stands for this setting: 137-2000 mM NaCl, within about five to ten minutes after addition.
The mark [6] stands for this setting: hypertonic stress of about 1380 mM NaCl, pH 8.0±0.4, MTT 12-24 hours post-exposure.
Setting [7] is: ≧200 mM NaCl, 90 μM frusemide, 3 μl of 5N NaOH, about ten minutes.

Turning to `[Cl-].[Na+]` [NaCl, sodium chloride], the “survival level of RPECs” value in data set [1] (137-2000 mM NaCl, pH raised from 8.4±0.5 to 10.6±0.5, ten minutes) is “dramatic decrease in the survival level”. In data set [1] (setting [5]), the “shrinkage and loss of adhesion in RPECs” value is given as “not seen as significantly”. Besides, in data set [1] (setting [6]), the “RPECs survive (cell viability)” value is reported as “more than eighty”. Further, the “LECs sensitivity to hypertonic stress” value in data set [2] (170 and 340 mM NaCl, pH 8.0 to 10.6, ten minutes) was “increases with increasing pH and increasing NaCl concentrations”. Moreover, in data set [2] (170 or 340 mM NaCl, pH about 8.9±0.8), the “LEC detachment and bursting” value was “detach effectively from their substrates but do not burst significantly”. Further, the “LECs burst and die” value in data set [2] (170 or 340 mM NaCl, pH about 10.6±0.5, within five minutes) is “greater than seventy five”. Moreover, in data set [2] (setting [6]), the “LECs survive (cell viability)” value is reported as “about forty”. The LECs survive result in data set [2] (rapid hypertonic shock with 1380 mM NaCl, absence of frusemide, pH 8.0±0.4) was “about 40%”. In data set [3] (setting [5]), the “shrinkage and loss of adhesion in CEDCs” value was “not seen as significantly”. The “CEDCs survive (cell viability)” value in data set [3] (setting [6]) is “more than eighty”. Also, the “LEC shrinkage and loss of adhesion” value in data set [4] (setting [5]) is “began to shrink, round up and lose adhesion from the monolayer in a dose-dependent manner”. Further, the “survival capability of the LECs (hypertonic shock NaCl concentration)” value in data set [4] (absence of frusemide) came to 200 mM.
As for `NS(=O)(=O)c1cc(C(=O)O)c(NCc2ccco2)cc1Cl` [frusemide], in data set [1] (between 30 μM and 90 μM frusemide, ≦200 mM NaCl, 3 μl of 5N NaOH), the “RPECs removed or killed” value was “few RPECs are removed or killed”. For the same compound, in data set [1] (setting [7]), the RPECs survived result is recorded as “eighty”. Besides, the “survival rate for LECs” value in data set [2] (setting [7]) was “less than ten”. In addition, the CEDCs survived entry in data set [3] (setting [7]) was “more than seventy”. Further, in the data set on primary cultured LECs, the “LEC appearance at five minutes post-treatment” value was “rounded up and separating from their substrate”; the “LEC appearance at ten minutes post-treatment and after washing” value is reported as “substantially clear substrate”. Also, the “LECs shrink, are lost or die” value in data set [4] (10 μM frusemide, ≦200 mM NaCl, 3 μl of 5N NaOH, about ten minutes) was “more than 50%”. Moreover, the LECs survive result in data set [4] (30 μM frusemide, rapid hypertonic shock with 340 mM NaCl, pH 8.0±0.4) was “almost no cells survive”. For the same compound, in data set [4] (between 30 μM and 120 μM frusemide, ≦200 mM NaCl, 3 μl of 5N NaOH), the “LECs removed or killed” value is recorded as > 90%. Besides, the “survival capability of the LECs (hypertonic shock NaCl concentration)” value in data set [4] (presence of 30 μM frusemide) stood at 170 mM.
